{
  "source": "patent US9200269B2",
  "about": "“β-glucuronidase inhibitor” (priority 2007, dated 2015)",
  "key": {"[1]": {"target": "T1, β-glucuronidase Type VII-A derived from Escherichia coli (Escherichia coli, UniProt P05804)", "T1 construct": "purchased Sigma-Aldrich Corporation", "T1 sequence (P05804 whole entry)": "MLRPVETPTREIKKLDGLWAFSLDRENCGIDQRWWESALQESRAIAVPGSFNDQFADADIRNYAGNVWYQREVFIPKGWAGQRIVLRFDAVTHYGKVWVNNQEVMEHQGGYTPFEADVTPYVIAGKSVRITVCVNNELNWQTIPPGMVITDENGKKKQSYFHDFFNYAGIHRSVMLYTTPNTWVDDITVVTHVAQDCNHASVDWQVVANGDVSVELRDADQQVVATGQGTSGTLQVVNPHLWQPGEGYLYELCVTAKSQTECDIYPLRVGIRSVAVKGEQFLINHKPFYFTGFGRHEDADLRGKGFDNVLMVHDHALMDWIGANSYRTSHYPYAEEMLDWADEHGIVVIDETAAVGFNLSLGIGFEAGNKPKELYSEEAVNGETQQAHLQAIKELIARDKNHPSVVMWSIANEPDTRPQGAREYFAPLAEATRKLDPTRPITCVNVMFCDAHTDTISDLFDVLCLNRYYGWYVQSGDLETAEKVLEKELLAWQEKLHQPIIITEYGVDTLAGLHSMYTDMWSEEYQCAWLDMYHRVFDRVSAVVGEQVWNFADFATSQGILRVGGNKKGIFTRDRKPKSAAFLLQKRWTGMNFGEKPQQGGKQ", "assay": "Inhibition of β-glucuronidase activity (PNPG substrate, absorbance at 400 nm)", "assay_type": "biochemical", "settings": "1.6 units/mL enzyme, 37° C., 2 hours, pH 6.8", "protocol": "100 μL of a 2 mM PNPG aqueous solution, 40 μL of a 0.5 M phosphate buffer (pH 6.8), 38 μL of ion exchanged water and 2 μL of a 10 or 1 wt % dipropylene glycol (DPG) solution of various compounds or plant extracts were mixed in a bottle γ-ray sterilized in advance, and subsequently 20 μL of a β-glucuronidase aqueous solution adjusted to 16 units/mL was added, in order to allow the enzyme to react in a thermostat bath at 37° C. for 2 hours. Further, in the case of some of compounds, in addition to the above steps, the same experiment was performed using a 0.1 wt % DPG solution as well. As a result, the concentrations of the test compounds and plant extracts in the reaction solution were adjusted to 0.1, 0.01 and 0.001 wt %, respectively. Further, a product prepared by adding DPG in place of the above-mentioned compounds and plant extracts was used as a control, and a product prepared by adding ion exchanged water in place of an enzyme solution was used as a blank for each sample and control, and the respective products were allowed to react for 2 hours in the same manner. It should be noted that the plant extract sample was used as a solvent extract.\nThe above-mentioned reaction solution was diluted with a 0.2 M glycine buffer (pH 10.4) and measured for its absorbance at a wavelength of 400 nm. The relative activity inhibition rate of a β-glucuronidase was determined by using the obtained measurement value in accordance with the following equation. Absorbance change of control=Absorbance of control−Absorbance of blank for each control Absorbance change of sample=Absorbance of sample−Absorbance of blank for each sample Activity inhibition rate (%)=[(Absorbance change of control−Absorbance change of sample)/Absorbance change of control]×100"}, "[2]": {"target": "T2, β-glucuronidase (Escherichia coli, UniProt P05804)", "T2 construct": "purchased Sigma-Aldrich Corporation", "T2 sequence (P05804 whole entry)": "as above", "assay": "Suppression of generation of urine odor in enzyme-added urine, sensory evaluation", "settings": "0.01 wt %; human urine plus enzyme, 25° C., 2 hours; six panelists", "protocol": "Sensory evaluation of odor was performed by six panelists, the evaluation was based on a six-level odor intensity indication method in which the odor intensity was indicated with an evaluation score of 0 to 5. In the evaluation score, “0” indicates no odor, “1” indicates odor which can be slightly perceived (detection threshold), “2” indicates odor which can be perceived to be urine odor but is weak (perception threshold), “3” indicates odor which can be easily perceived to be urine odor, “4” indicates strong urine odor, and “5” indicates extreme urine odor. The odor intensity was determined at an interval of 0.5.\n360 μL of a human urine sample (a mixture of urine from five humans), which had been subjected to a microbe-removing operation with a 0.2-μm filter immediately after the collection, and […] of a 10 wt % 8-cyclohexadecen-1-one DPG solution were added to a bottle γ-ray sterilized in advance, and subsequently 40 μL of a β-glucuronidase aqueous solution adjusted to 20 units/mL was added and mixed. The mixture was incubated in a thermostat bath at 25° C. and allowed to react for 2 hours. The concentration of 8-cyclohexadecen-1-one in the reaction solution was 0.01 wt %. […]"}, "[3]": {"system": "β-glucuronidase activity derived from microbial cells grown in the putrefied urine", "assay": "Inhibition of β-glucuronidase activity derived from urine putrefying microbial cell (putrefied urine supernatant, PNPG)", "assay_type": "biochemical", "settings": "0.01 wt % in reaction solution; room temperature, 24 hours", "protocol": "A putrefied urine product, which was prepared by collecting 20 mL of a urine sample, dispensing the sample in a bottle which had been preliminarily subjected to γ-ray sterilization without performing any microbe removing operation and storing the resultant at room temperature for 7 days, was used. 1 mL of the putrefied urine was centrifuged at 10,000 rpm for 5 minutes, and separated into a microbial cell and a supernatant. The precipitated microbial cell was suspended in 0.5 mL of saline. The supernatant was subjected to sterilizing through a 0.2-μm filter.\n250 μL of a 2 mM PNPG aqueous solution, 100 μL of a 0.5 M phosphate buffer (pH 6.8), […] of a 10 wt % 8-cyclohexadecen-1-one DPG solution and 100 μL of ion exchanged water were mixed in a bottle γ-ray sterilized in advance, and subsequently 50 μL of the putrefied urine supernatant sample in Reference Example 3 were added. The mixture was allowed to react at room temperature. […]\nThe above-mentioned reaction solution immediately after the start of the reaction and after 24 hours of reaction was diluted with a 0.2 M glycine buffer (pH 10.4) and measured for its absorbance at a wavelength of 400 nm. A value obtained by subtracting the absorbance immediately after the start from the absorbance after 24 hours of reaction was used as an index of a β-glucuronidase activity."}},
  "data": [
    {"smiles": "O=C1CCCCCCC=CCCCCCCC1", "note": "[8-Cyclohexadecen-1-one, 8-cyclohexadecen-1-one]", "values": [
      {"measurement": "Inhibition rate (%) Concentration 0.001%", "setting": "[1]; 0.001 wt % in reaction solution", "value": 95.8, "unit": "%"},
      {"measurement": "inhibition at 0.01 wt %", "setting": "[1]; 0.01 wt % in reaction solution, read-out: Inhibition rate (%) Concentration 0.01%", "value": 99.9, "unit": "%"},
      {"measurement": "inhibition at 0.1 wt %", "setting": "[1]; 0.1 wt % in reaction solution, read-out: Inhibition rate (%) Concentration 0.1%", "value": 100, "unit": "%"},
      {"measurement": "Generation of urine odor, sensory evaluation (result in words, FIG. 5)", "setting": "[2]", "value": "sensuously suppressed the generation of urine odor"},
      {"measurement": "β-glucuronidase activity of putrefied urine supernatant (result in words, FIG. 4)", "setting": "[3]", "value": "suppressed the β-glucuronidase activity"}
    ]}
  ]
}
